Legend:
TNBC cell lines [1] = assay: Combination apoptosis induction (immunoblotting and/or Annexin-PI staining); format: cell-based; details: TNBC cell lines (FIGS. 15 and 16; ABT-263 data not shown)
Experimental: Immunoblotting and/or Annexin-PI staining confirmed that BM-1197 (250 nM), ABT-263 (250 nM), and A-1155463 (250 nM) potentiated Cpd. No. 4-induced apoptosis (50 nM) in MDA-MB-468 (FIG. 14) and other TNBC cell lines (data not shown). Synergistic induction of apoptosis by Cpd. […] No. 4-induced apoptosis in these cell lines. […] A with either BM-1197 (FIGS. 15 and 16) or ABT-263 (data not shown). […] No. 4 and BM-1197 was also detected in additional TNBC cell lines responsive to Cpd. No. 4-induced apoptosis (BT-20 and MDA-MB-157) (data not shown), further supporting that BCL-XL inhibitors potentiate Cpd. No. 4-induced apoptosis in TNBC.

MOLM16 = assay: Cell growth inhibition (CellTiter-Glo), leukemia line MOLM16; format: cell-based
Experimental: (§1) Cell growth inhibitory activity of representative BET bromodomain degraders in representative non-small cell lung cancer cell lines was determined using the CellTiter-Glo® Luminescent Cell Viability Assay. Cells were seeded in 384-well white opaque cell culture plates at a density of 2,000 cells/well with serially diluted compounds and incubated at 37° C. in an atmosphere of 95% air and 5% CO2 for 4 days. Cell viability was determined using the CellTiter-Glo® Luminescent Cell Viability Assay Kit (Promega, Madison, Wis.) according to the manufacture's instruction. Briefly, a volume of CellTiter-Glo® Reagent equal to the volume of cell culture medium was added to each well, and then the plates were incubated at room temperature for 10-20 minutes. The luminescent signal was measured using a Tecan Infinite M1000 multimode microplate reader (Tecan, Morrisville, N.C.). The half maximal inhibitory concentration (IC50) was calculated using the GraphPad Prism 5 software (GraphPad Software, La Jolla, Calif.). Cpd. A is a BET bromodomain inhibitor, see U.S. Appl. No. 62/121,637, having the following structure: Cell growth inhibitory activity of representative BET bromodomain degraders in representative leukemia cell lines, see Table 8, was determined as described in Example 17.

Mono-Mac6 = assay: Cell growth inhibition (CellTiter-Glo), leukemia line Mono-Mac6; format: cell-based; details: Homo sapiens, MONO-MAC-6
Experimental: as §1

AML-3 = assay: Cell growth inhibition (CellTiter-Glo), leukemia line AML-3; format: cell-based; details: AML3; AML-3 leukemia cell line
Experimental: as §1

BET proteins = assay: PD analysis of BET proteins in WHIM24 tumors; format: in vivo, mice; details: single IV dose 10 mg/kg
Experimental: (§2) Cpd. […] A at 50 mg/kg, daily, oral dosing, 5 days a week for 3 weeks. Cpd. […] Neither Cpd. A nor Cpd. No. 4 caused significant weight loss (data not shown) or apparent toxicity in this model. […] No. 4 (10 mg/kg) reduced the levels of BET proteins by >80% at as early as 1 h and this effect lasted for at least 9 h in WHIM24 tumors (data not shown). […] No. 4 treatment (data not shown). […] No. 4 is reversible once the drug is cleared from the tumor tissue.

MDA-MB-468 xenograft = assay: In vivo antitumor activity in MDA-MB-468 xenograft model; design: species or system SCID mice
Experimental: For the in vivo efficacy experiments of this example, when tumors reached 80-200 mm^3, SCID mice were randomized into groups. Cpd. A, Cpd. No. 4, Cpd. No. 6, or vehicle control (10% PEG400: 3% Cremophor: 87% PBS, or 2% TPGS:98% PEG200) was given at the dose and duration indicated. Tumor sizes and animal weights were measured 2-3 times per week. Tumor volume (mm^3)=(length×width^2)/2. Tumor growth inhibition was calculated as TGI (%)=(Vc−Vt)/(Vc−Vo)*100, where Vc, Vt are the median of control and treated groups at the end of the study and Vo at the start. All the in vivo studies were performed under an animal protocol approved by the University Committee on Use and Care of Animals of the University of Michigan, in accordance with the recommendations in the Guide for the Care and Use of Laboratory Animals of the National Institutes of Health.
No. 4 was determined in xenograft tumor models of TNBC cell lines.

MCL1 protein = assay: PD analysis of MCL1 protein in WHIM24 tumors; format: in vivo, mice; details: at as early as 3 h after treatment (data not shown)
Experimental: as §2

TNBC cell lines [2] = assay: Apoptosis induction in TNBC cell lines; format: cell-based; details: triple-negative breast cancer (TNBC) cell lines (FIG. 12)
[3] = Pharmacokinetics (PK) analysis in tumor bearing mice; format: in vivo
Experimental: as §2

Structure (SMILES) | synergism with either BM-1197 or ABT-263 (TNBC cell lines [1]) | IC50 (MOLM16) | IC50 (Mono-Mac6) | IC50 (AML-3) | time at which protein levels of BRD2, BRD4 and MCL1 started to rebound (BET proteins; WHIM24 tumors) | duration of the reduction of BET proteins in WHIM24 tumors (BET proteins) | reduction of the levels of BET proteins in WHIM24 tumors (BET proteins; at as early as 1 h (data not shown)) | antitumor activity (MDA-MB-468 xenograft; MDA-MB-468 model, 10 mg/kg, IV, 3 times per week for 2-3 weeks (FIG. 11)) | tumor growth (MDA-MB-468 xenograft; MDA-MB-468 xenograft model in mice (FIG. 11)) | MCL1 protein levels in tumors (MCL1 protein) | apoptosis induction (TNBC cell lines [2]) | drug exposure in the xenograft tumor tissue ([3]; MDA-MB-231 and MDA-MB-468 models (data not shown)) | drug exposure in the WHIM24 xenograft tumor tissue ([3]; WHIM24 model) | drug concentrations in both plasma and tumors over time ([3]; single dose 10 mg/kg, WHIM24 tumor bearing mice (data not shown)) | drug exposure in plasma and WHIM24 tumors ([3]; single dose 10 mg/kg, tumor bearing mice, at 1 and 3 h (data not shown))
CCn1nc(C2CC2)cc1Nc1nc(COC)nc2[nH]c3cc(-c4c(C)noc4C)c(OC)cc3c12 [Cpd. A, reference compound] | No clear synergism |  |  |  |  |  |  |  |  |  |  |  |  |  | 
CCn1nc(C2CC2)cc1Nc1nc(C(=O)NCCCOCCOCCOCCCNc2cccc3c2C(=O)N(C2CCC(=O)NC2=O)C3=O)nc2[nH]c3cc(-c4c(C)noc4C)c(OC)cc3c12 (stereo not drawn) [Cpd. No. 4] |  | 300 nM | 1400 nM | 400 nM | 12 h | at least 9 h | > 80% | limited or no antitumor activity | reduce tumor growth | markedly reduced | induces stronger apoptosis than Cpd. A | limited drug exposure | good drug exposure | diminished rapidly | reasonable drug exposure
